Data on 13 molecules can be found in patent publication US7968591B2, “1,3-disubstituted 4-methyl-1H-pyrrole-2-carboxamides and their use in medicaments” (Gruenenthal GmbH, priority 2006, dated 2011).

This experiment has as its system batrachotoxin (BTX) binding site of the sodium channel. The experiment in a line: Affinity for the batrachotoxin (BTX) binding site of the sodium channel. The settings on record: rat cerebrocortex synaptosomes, [3H]-Batrachotoxinin A20α benzoate 10 nM.
With `COc1ccc(-c2c(C)cn(Cc3ccc(F)cc3)c2C(=O)NCCc2cccs2)cc1` [Example 35, 1-(4-fluorobenzyl)-3-(4-methoxyphenyl)-4-methyl-1H-pyrrole-2-carboxylic acid (2-thiophen-2-ylethyl)-amide], the “BTX (Na+ channel) (% inhibition at 10 μM)” value is recorded as 48%.
The value for `Cc1cn(Cc2ccc(C(F)(F)F)cc2)c(C(=O)NCCN2CCCC2)c1-c1ccco1` [Example 38, 3-furan-2-yl-4-methyl-1-(4-trifluoromethylbenzyl)-1H-pyrrole-2-carboxylic acid (2-pyrrolidin-1-ylethyl)-amide] was 94%; that for `COc1ccc(Cn2cc(C)c(-c3ccc(C)cc3)c2C(=O)N(C)CC(=O)OCc2ccccc2)cc1` [Example 39, {[1-(4-methoxybenzyl)-4-methyl-3-p-tolyl-1H-pyrrole-2-carbonyl]-methylamino}-acetic acid benzyl ester] was 74%.
In the case of `COc1ccc(Cn2cc(C)c(-c3ccco3)c2C(=O)NCCC2CCCN2C)cc1` (stereo not shown) [Example 40, 3-furan-2-yl-1-(4-methoxybenzyl)-4-methyl-1H-pyrrole-2-carboxylic acid [2-(1-methylpyrrolidin-2-yl)-ethyl]-amide], the “BTX (Na+ channel) (% inhibition at 10 μM)” value was 81%.
The result for `CCOc1ccc(Br)cc1CN1CCN(C(=O)c2c(-c3ccccc3)c(C)cn2C)CC1` [Example 41, [4-(5-bromo-2-ethoxybenzyl)-piperazin-1-yl]-(1,4-dimethyl-3-phenyl-1H-pyrrol-2-yl)-methanone] reads 77%; that for `COc1ccc(CN2CCN(C(=O)c3c(-c4ccco4)c(C)cn3Cc3ccccc3)CC2)cc1F` [Example 42, (1-benzyl-3-furan-2-yl-4-methyl-1H-pyrrol-2-yl)-[4-(3-fluoro-4-methoxybenzyl)-piperazin-1-yl]-methanone], 88%; that for `CCn1cc(C)c(-c2ccc(Cl)cc2)c1C(=O)NCCC(=O)OC(C)(C)C` [Example 43, 3-{[3-(4-chlorophenyl)-1-ethyl-4-methyl-1H-pyrrole-2-carbonyl]-amino}-propionic acid tert.-butyl ester], 31%.
The value for `COc1cccc(CNC(=O)c2c(-c3ccccc3)c(C)cn2Cc2ccccc2)c1` [Example 44, 1-benzyl-4-methyl-3-phenyl-1H-pyrrole-2-carboxylic acid 3-methoxybenzylamide] was 47%.
As for `CCOc1ccc(Br)cc1CN1CCN(C(=O)c2c(-c3ccco3)c(C)cn2Cc2ccccc2)CC1` [Example 45, (1-benzyl-3-furan-2-yl-4-methyl-1H-pyrrol-2-yl)-[4-(5-bromo-2-ethoxybenzyl)-piperazin-1-yl]-methanone], the “BTX (Na+ channel) (% inhibition at 10 μM)” value is reported as 89%.
The result for `Cc1ccccc1N1CCN(C(=O)c2c(-c3ccc(Cl)cc3)c(C)cn2C)CC1` [Example 46, [3-(4-chlorophenyl)-1,4-dimethyl-1H-pyrrol-2-yl]-(4-o-tolylpiperazin-1-yl)-methanone] reads 55%; that for `CCOc1ccc(CCNC(=O)c2c(-c3ccc(OC)cc3)c(C)cn2Cc2ccc(F)cc2)cc1` [Example 47, 1-(4-fluorobenzyl)-3-(4-methoxyphenyl)-4-methyl-1H-pyrrole-2-carboxylic acid [2-(4-ethoxyphenyl)-ethyl]-amide], 55%; that for `Cc1ccc(-c2c(C)cn(Cc3c(Cl)cccc3Cl)c2C(=O)N2CCC(O)CC2)cc1` [Example 48, [1-(2,6-dichlorobenzyl)-4-methyl-3-p-tolyl-1H-pyrrol-2-yl]-(4-hydroxypiperidin-1-yl)-methanone], 36%.
On to `COc1cc(OC)c(CN2CCN(C(=O)c3c(-c4ccc(C)cc4)c(C)cn3C)CC2)c(OC)c1` [Example 49, (1,4-dimethyl-3-p-tolyl-1H-pyrrol-2-yl)-[4-(2,4,6-trimethoxybenzyl)-piperazin-1-yl]-methanone], for which the “BTX (Na+ channel) (% inhibition at 10 μM)” value is 89%.
